Columns and labels:
human TLR7 = biological target: T1, human TLR7 (Homo sapiens, UniProt Q9NYK1); assay: HEK-Blue TLR7 reporter assay (SEAP reporter); assay type: cell-based; conditions: HEK-Blue TLR7 cells, 18 h treatment, SEAP readout; average if more than one assay; read-out: TLR7 Agonism HEK Blue ™ Assay EC50
T1 construct: host or cells: HEK-Blue TLR7 cells (engineered human embryonic kidney cells)
T1 sequence (Q9NYK1 27-1049): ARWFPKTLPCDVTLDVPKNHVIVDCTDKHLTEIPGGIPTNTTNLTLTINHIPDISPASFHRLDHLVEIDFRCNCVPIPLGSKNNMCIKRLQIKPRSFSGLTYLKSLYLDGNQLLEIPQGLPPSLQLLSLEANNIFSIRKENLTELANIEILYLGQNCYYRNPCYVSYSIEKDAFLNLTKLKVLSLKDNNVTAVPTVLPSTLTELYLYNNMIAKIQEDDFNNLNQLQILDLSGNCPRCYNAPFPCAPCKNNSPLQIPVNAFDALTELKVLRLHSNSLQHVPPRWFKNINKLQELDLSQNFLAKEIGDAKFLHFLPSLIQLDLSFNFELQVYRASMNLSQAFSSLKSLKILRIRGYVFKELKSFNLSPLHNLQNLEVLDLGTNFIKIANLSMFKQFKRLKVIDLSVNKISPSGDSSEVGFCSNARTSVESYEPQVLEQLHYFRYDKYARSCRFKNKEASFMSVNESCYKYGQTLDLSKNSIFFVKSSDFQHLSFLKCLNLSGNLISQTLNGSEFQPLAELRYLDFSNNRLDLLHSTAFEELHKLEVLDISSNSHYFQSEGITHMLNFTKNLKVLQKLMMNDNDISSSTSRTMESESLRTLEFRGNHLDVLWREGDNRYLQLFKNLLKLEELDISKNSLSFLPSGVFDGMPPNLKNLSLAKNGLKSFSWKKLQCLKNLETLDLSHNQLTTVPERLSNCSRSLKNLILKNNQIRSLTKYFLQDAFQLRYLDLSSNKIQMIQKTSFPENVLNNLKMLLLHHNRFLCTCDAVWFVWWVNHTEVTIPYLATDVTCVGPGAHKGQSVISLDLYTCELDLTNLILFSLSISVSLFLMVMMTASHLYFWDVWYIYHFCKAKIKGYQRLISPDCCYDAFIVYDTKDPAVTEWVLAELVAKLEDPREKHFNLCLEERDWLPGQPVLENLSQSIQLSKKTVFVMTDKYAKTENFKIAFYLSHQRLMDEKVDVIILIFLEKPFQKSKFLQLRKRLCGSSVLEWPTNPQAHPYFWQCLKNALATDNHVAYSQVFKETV
From the text: Table A presents biological activity data for compounds disclosed herein. One set of data relates TLR7 agonism activity using the HEK-Blue™ TLR7 reporter assay, as described in Example 11 hereinbelow. Another set of data relates to the induction of interleukin 6 (IL-6), a cytokine that plays an important role in the TLR7 pathway. […] In some instances, more that one TLR7 agonism or IL-6 induction assay was made; if so, the reported value is an average.
This example describes a method for assaying TLR7 agonist activity of the compounds disclosed in this specification.
HEK-Blue™ TLR7 cells were added to each well of a 384-well tissue-culture plate (15,000 cells per well) and incubated 16-18 h at 37° C., 5% CO2. Compounds (100 nl) were dispensed into wells containing the HEK-Blue™ TLR cells and the treated cells were incubated at 37° C., 5% CO2. After 18 h treatment ten microliters of freshly-prepared Quanti-Blue™ reagent (Invivogen) was added to each well, incubated for 30 min (37° C., 5% CO2) and SEAP levels measured using an Envision plate reader (OD=620 nm). […] EC50's can be determined with software such as Graphpad Prism™.

interleukin 6 (IL-6) = assay: Interleukin 6 induction assay in human whole blood (AlphaLISA); assay type: cell-based; conditions: Homo sapiens, 20 h, 20 h at 37° C., 100% set by resiquimod reference at 10 μM, average if more than one assay, read-out: IL-6 Induction EC50 (nM) (normalized 10 μM)
From the text: Table A presents biological activity data for compounds disclosed herein. One set of data relates TLR7 agonism activity using the HEK-Blue™ TLR7 reporter assay, as described in Example 11 hereinbelow. Another set of data relates to the induction of interleukin 6 (IL-6), a cytokine that plays an important role in the TLR7 pathway. […] In some instances, more that one TLR7 agonism or IL-6 induction assay was made; if so, the reported value is an average. This example describes a method for assaying interleukin 6 (IL 6) induction by compounds disclosed in this specification. Compounds suspended in DMSO were transferred to individual wells of a Matrix Technologies clear, V-bottom 384-well plate using ECHO acoustic liquid handling technology (25 nL per well). Human whole-blood samples (25 uL) were added to each well using a CyBio FeliX liquid handling instrument and the plate was shaken on a plate shaker for three minutes before incubating the reaction mixtures at 37° C. for 20 h. Basel RPMI 1640 medium (supplemented with L-glutamine) was then added to each well (25 uL per well) prior to liberating plasma from each sample by centrifugation (450×g, 5 min, ambient temperature). Treated plasma samples (3 uL) were subsequently transferred to individual wells of a white, shallow, 384-well ProxiPlate (PerkinElmer) using the FeliX liquid handling instrument and their IL6 levels were measured using AlphaLISA technology as described by the manufacturer (PerkinElmer).

| Structure (SMILES) | EC50 (human TLR7) | EC50 (interleukin 6 (IL-6)) |
| --- | --- | --- |
| Nc1nc2nc3c1nc(O)n3Cc1cccc(c1)C/C=C\CCO2 [Compound B2, reference compound] | 33 nM |  |
| Nc1nc2nc3c1nc(O)n3Cc1ccc(O)c(c1)C/C=C\CCO2 [Compound B4, reference compound] | 17 nM | 960 nM |
| Nc1nc2nc3c1nc(O)n3Cc1cc(cc(Oc3ccc(CNC4CC4)cc3)c1)C/C=C\CCO2 [IIa-15] | 9.2 nM | 57 nM |
| Nc1nc2nc3c1nc(O)n3Cc1ccc(-c3cc(CNC4CCC4)[nH]n3)c(c1)C/C=C\CCO2 [IIb-15] | 0.65 nM | 4.7 nM |
| Nc1nc2nc3c1nc(O)n3Cc1ccc(-c3cccc(C(=O)NC4CNC4)c3)c(c1)C/C=C\CCO2 [IIb-29] | 3.2 nM | 24 nM |
| Nc1nc2nc3c1nc(O)n3Cc1ccc(-c3cnn(CCNC4CCC4)c3)c(c1)C/C=C/CCO2 [IIb-07] | 0.22 nM | 1.6 nM |
| Nc1nc2nc3c1nc(O)n3Cc1cccc(c1)C/C=C/CCO2 [Compound B1, reference compound] | 210 nM |  |
| Nc1nc2nc3c1nc(O)n3Cc1cc(cc(Oc3cccc(CNC4CCC4)c3)c1)C/C=C/CCO2 [IIa-14] | 19 nM | 140 nM |
| Nc1nc2nc3c1nc(O)n3Cc1ccc(Oc3cccc(CNC4CC4)c3)c(c1)C/C=C/CCO2 [IIa-03] | 5.3 nM | 47 nM |
| Nc1nc2nc3c1nc(O)n3Cc1ccc(-c3cnc(CNC4CCC4)s3)c(c1)C/C=C/CCO2 [IIb-13] | 0.24 nM | 4.3 nM |
| COCCNCc1ccc(Oc2ccc3cc2C/C=C/CCOc2nc(N)c4nc(O)n(c4n2)C3)cc1 [IIa-09] | 2.2 nM | 1.9 nM |
| Nc1nc2nc3c1nc(O)n3Cc1ccc(Oc3cccc(C(=O)NC4CNC4)c3)c(c1)C/C=C\CCO2 [IIa-20] | 15 nM | 91 nM |
| Nc1nc2nc3c1nc(O)n3Cc1ccc(-c3cccc(C(=O)NC4CNC4)c3)c(c1)C/C=C/CCO2 [IIb-31] | 6.8 nM | 28 nM |
| Nc1nc2nc3c1nc(O)n3Cc1ccc(OCC(=O)NC3CNC3)c(c1)C/C=C\CCO2 [IIe-01] | 5.3 nM | 40 nM |
| Nc1nc2nc3c1nc(O)n3Cc1ccc(-c3cnn(CCNC4CC4)c3)c(c1)C/C=C\CCO2 [IIb-02] | 0.35 nM | 1.3 nM |
| Nc1nc2nc3c1nc(O)n3Cc1ccc(-c3cnn(CC(=O)NC4CNC4)c3)c(c1)C/C=C\CCO2 [IIb-39] | 1.6 nM |  |
| Nc1nc2nc3c1nc(O)n3Cc1ccc(Oc3ccc(C(=O)NC4CNC4)cc3)c(c1)C/C=C\CCO2 [IIa-19] | 25 nM | 95 nM |
| Nc1nc2nc3c1nc(O)n3Cc1ccc(-c3ccc(CNC4CCC4)cc3)c(c1)OCCCCO2 [IIb-19] | 1 nM | 1.4 nM |
| Nc1nc2nc3c1nc(O)n3Cc1ccc(-c3cn[nH]c3)c(c1)C/C=C/CCO2 [IIb-06] | 21 nM | 570 nM |
| Nc1nc2nc3c1nc(O)n3Cc1cc(cc(Oc3ccc(CNC4CCC4)cc3)c1)CCCCCO2 [IIa-16] | 42 nM | 250 nM |
| Nc1nc2nc3c1nc(O)n3Cc1ccc(-c3cnn(CCN4CCOCC4)c3)c(c1)C/C=C/CCO2 [IIb-37] | 3.8 nM | 180 nM |
| Nc1nc2nc3c1nc(O)n3Cc1ccc(-c3cnn(CCNC4CC4)c3)c(c1)C/C=C/CCO2 [IIb-01] | 0.67 nM | 42 nM |
| Nc1nc2nc3c1nc(O)n3Cc1ccc(Oc3cccc(CNC4CCC4)c3)c(c1)C/C=C\CCO2 [IIa-07] | 4.2 nM | 2.9 nM |
| Nc1nc2nc3c1nc(O)n3Cc1ccc(Oc3cccc(CNC4CC4)c3)c(c1)C/C=C\CCO2 [IIa-05] | 7.2 nM | 18 nM |
| Nc1nc2nc3c1nc(O)n3Cc1ccc(O)c(c1)CCCCCO2 [Compound B5, reference compound] | 580 nM |  |
| Nc1nc2nc3c1nc(O)n3Cc1cc(cc(OC3CCNCC3)c1)C/C=C/CCO2 [IIc-02] | 23 nM | 200 nM |
| Nc1nc2nc3c1nc(O)n3Cc1ccc(-c3cnn(CCNC4CCC4)c3)c(c1)C/C=C\CCO2 [IIb-09] | 0.35 nM | 2.1 nM |
| CCOCc1nc2c(N)nc3ccccc3c2n1CC(C)(C)O [Resiquimod, resiquimod, reference compound] |  | 350 nM |
| Nc1nc2nc3c1nc(O)n3Cc1ccc(-c3cnn(C4CCNCC4)c3)c(c1)C/C=C/CCO2 [IIb-36] | 1 nM |  |
| Nc1nc2nc3c1nc(O)n3Cc1ccc(-c3cnn(C4CNC4)c3)c(c1)C/C=C/CCO2 [IIb-35] | 1.5 nM |  |

The next lines start with results.

| EC50 (human TLR7) | Structure (SMILES) | EC50 (interleukin 6 (IL-6)) |
| --- | --- | --- |
| 0.62 nM | CC(=O)N1CC(NCc2ccc(-c3ccc4cc3C/C=C\CCOc3nc(N)c5nc(O)n(c5n3)C4)cc2)C1 [IIb-27] | 4 nM |
| 0.91 nM | Nc1nc2nc3c1nc(O)n3Cc1ccc(-c3ccc(CNC4CCC4)cc3)c(c1)C/C=C\CCCO2 [IIb-17] | 0.99 nM |
| 0.42 nM | Nc1nc2nc3c1nc(O)n3Cc1ccc(-c3ccc(CNC4CC(O)C4)cc3)c(c1)C/C=C\CCO2 (stereo not drawn) [IIb-22] | 1.4 nM |
| 0.33 nM | Nc1nc2nc3c1nc(O)n3Cc1ccc(-c3ccc(CNC4CCC4)cc3)c(c1)C/C=C\CCO2 [IIb-11] | 0.68 nM |
| 0.28 nM | Nc1nc2nc3c1nc(O)n3Cc1ccc(-c3ccc(CNC4CC4)nc3)c(c1)C/C=C/CCO2 [IIb-04] | 10 nM |
| 56 nM | Nc1nc2nc3c1nc(O)n3Cc1ccc(-c3ccc(CNC4CCC4)cc3)c(c1)OCCCO2 [IIb-20] | 150 nM |
| 0.91 nM | Nc1nc2nc3c1nc(O)n3Cc1ccc(Oc3ccc(CNC4CC4)cc3)c(c1)C/C=C\CCO2 [IIa-04] | 4.4 nM |
| 1.6 nM | Nc1nc2nc3c1nc(O)n3Cc1ccc(-c3ccc(C(=O)NC4CNC4)cc3)c(c1)C/C=C\CCO2 [IIb-30] | 36 nM |
| 4.2 nM | Nc1nc2nc3c1nc(O)n3Cc1ccc(-c3ccc(CNC4CCC4)cc3)c(c1)CCCCCO2 [IIb-12] | 13 nM |
| 0.12 nM | Nc1nc2nc3c1nc(O)n3Cc1ccc(-c3ccc(CNC4CCOCC4)cc3)c(c1)C/C=C\CCO2 [IIb-34] | 0.76 nM |
| 0.22 nM | Nc1nc2nc3c1nc(O)n3Cc1ccc(-c3ccc(CNC4CCC4)nc3)c(c1)C/C=C/CCO2 [IIb-05] | 0.62 nM |
| 4.1 nM | Nc1nc2nc3c1nc(O)n3Cc1ccc(-c3ccc(C(=O)NC4CNC4)cc3)c(c1)C/C=C/CCO2 [IIb-32] | 32 nM |
| 4 nM | Nc1nc2nc3c1nc(O)n3Cc1ccc(Oc3ccc(CNC4CC4)cc3)c(c1)C/C=C/CCO2 [IIa-02] | 5.2 nM |
| 51 nM | Nc1nc2nc3c1nc(O)n3Cc1ccc(Oc3ccc(CO)cc3)c(c1)C/C=C/CCO2 [IIa-01] |  |
| 0.42 nM | Nc1nc2nc3c1nc(O)n3Cc1ccc(-c3ccc(CNC4COC4)cc3)c(c1)C/C=C\CCO2 [IIb-33] |  |
